Assay: Crystallization at room temperature by slow evaporation
Procedure: Combined with approximate solubility experiment, solubility samples were filtered by 0.45 μm nylon filter. Obtained solutions were slow evaporated at ambient condition. Solid residues were examined for their polymorphic form (Table 34).
Scale up: About 200 mg of drug substance will be dissolved in EtOAc. Obtained solutions shall be exposed to ambient condition (protected by N2) to allow slow evaporation of solvents (Table 35).

CCC(=O)[O][Mn][O]C(=O)CC.c1cc2nc(c1)CN[C@H]1CCCC[C@@H]1NCCN[C@H]1CCCC[C@@H]1NC2 [API]
Comments (protect with N2, 1,4-Dioxane): API degradation, purity
purity (protect with N2, 1,4-Dioxane): 97.76%
Comments (protect with N2, ACN): API degradation, purity
purity (protect with N2, ACN): 98.98%
purity (protect with N2, Acetone): Purity 99.39%
purity (protect with N2, DCM): Purity 99.93%
purity (protect with N2, EtOAc): Purity 99.42%
purity (protect with N2, Ethanol): Purity 99.65%
purity (protect with N2, IPA): Purity 99.63%
purity (protect with N2, IPAC): Purity 99.90%
purity (protect with N2, MEK): Purity 99.33%
purity (protect with N2, MTBE): Purity 99.88%
purity (protect with N2, Methanol): Purity 99.92%
purity (protect with N2, THF): Purity 99.12%
Comments (protect with N2, Toluene): API degradation, purity
purity (protect with N2, Toluene): 96.47%
